Data set [1] deals with COPD patients. Briefly: Transition Dyspnea Index (TDI) in 2-week clinical trial. Particulars: for Patients with change ≧1 unit (TDI), n (%) / Difference between combined therapy and mono-therapies in TDI, LS mean / TDI, mean (SD) / Patients with change of ≧1 unit (TDI), n (%) / Patients with change of ≧1 unit (TDI), %: week 2; for Patients with change of ≧1 unit (TDI), %: cells print n (%); for improvement in TDI: patients with <50% predicted FEV1 at baseline. Type of data set: in vivo, human. The protocol: (§1) This was a 2-week, prospective, multi-center (34 sites), randomized, modified blind, double dummy, parallel group study designed to evaluate the efficacy and safety of the combination of arformoterol 15 μg BID and tiotropium 18 μg QD (dosed sequentially) versus the individual mono-therapies in the treatment of COPD patients. The study was conducted according to the principles established by the Declaration of Helsinki (see, e.g., World Medical Association Declaration of Helsinki. Recommendations guiding physicians in biomedical research involving human subjects. JAMA 1997; 277:925-926.). Appropriate Institutional Review boards approved the protocol and written informed consent was obtained from the patients.
(§2) Eligible patients were randomized to receive one of three treatments for 14 days: nebulized arformoterol 15 μg (Brovana®, Sepracor Inc., Marlborough, Mass.) BID and placebo DPI QD, nebulized placebo BID and tiotropium 18 μg (Spriva® HandiHaler® Boehringer Ingelheim, Ridgefield, Conn.) DPI QD, or nebulized arformoterol 15 μg BID and tiotropium 18 μg DPI QD. The nebulized drug was administered first using the PARI LC Plus® nebulizer driven by the Duraneb 3000® compressor (Pari: Pari Respiratory Equipment Inc., Midlothian, Va.) at a flow rate of 3.3 L/minute followed (within 5 minutes) by the DPI administration (HandiHaler®). The tiotropium and placebo DPI capsules were identical in size and shape but differed in color.
At screening, the Baseline Dyspnea Index (BDI) (see, e.g., Mahler D A, Weinberg D H, Wells C K, Feinstein A R. The measurement of dyspnea. Contents, interobserver agreement, and physiologic correlates of two new clinical indexes. Chest 1984; 85:751-758; herein incorporated in its entirety by reference) was assessed prior to the first clinic dose, and at week 2 the Transition Dyspnea Index (see id.) was evaluated before first morning dose. The baseline focal score (range 0 to 12) and the transition focal score (range −9 to 9) were the sums of the functional impairment, magnitude of task, and magnitude of effort scores (see id.). Higher scores indicate less dyspnea at baseline (BDI) or greater improvement in dyspnea from baseline (TDI).
The study was designed to detect a mean treatment difference of time normalized FEV1AUC over 24 hours (FEV1AUC0-24) (the primary endpoint) of 0.075 L with a standard deviation of 0.016 L when comparing combined therapy with mono-therapy, using a two-sided 5% significance level, following 2-weeks of dosing for the primary comparison with 80% power. All efficacy analyses were performed on the ITT population. All statistical testing was 2-tailed and conducted at the 5% significance level, unless otherwise indicated. […] To control for multiple comparisons, statistical tests of mean treatment group differences were considered significant if the overall treatment effect in the model was statistically significant at the 5% level. Pulmonary function severity subgroup analysis was performed post hoc by stratifying patients according to the GOLD COPD guidelines (see, e.g., Pauwels R A, Buist A S, Calverley P M, Jenkins C R, Hurd S S. Global strategy for the diagnosis, management, and prevention of chronic obstructive pulmonary disease. NHLBI/WHO Global Initiative for Chronic Obstructive Lung Disease (GOLD) Workshop summary. Am J Respir Crit Care Med 2001; 163:1256-1276;; herein incorporated in its entirety by reference) (<30%, ≧30% to <50%, and ≧50%, respectively). Pairwise comparisons between treatment groups were performed using least square means (LS means) from the linear model with the study baseline (or predose where applicable) as a covariate and the treatment group as a fixed effect.

The subject of data set [2] is COPD patients. Briefly: Adverse events in 2-week clinical trial. Particulars: for Any adverse event, n (%) / COPD exacerbations / Discontinued due to adverse events, n (%) / Overall cardiovascular adverse events, n (%) / Serious adverse events, n (%): ITT, 2 weeks of treatment. As for the experimental part:
as §1, §2
Descriptive statistics were calculated by treatment for baseline characteristics and each efficacy parameter. Adverse events were summarized using counts and percentages. All adverse events were coded using MedDRA (Medical Dictionary for Regulatory Activities (see, e.g., MedDRA and MSSO. The medical dictionary for regulatory activities 2008). A COPD exacerbation was pre-defined as an increase in symptoms that necessitated any change in baseline medication other than bronchodilators (e.g. anti-inflammatory agents, antibiotics, supplemental oxygen therapy, etc.) or caused the patient to require additional medical attention (hospitalization, emergency room visit, etc.).

Data set [3] has as its system COPD patients. The experiment in a line: Rescue medication (levalbuterol MDI) use in 2-week clinical trial. Type of data set: in vivo, human. The protocol:
as §1
During the study period, the use of LABAs or long-or short-acting anticholinergic bronchodilators (except for the study medication) was prohibited. Use of oral and inhaled corticosteroids was allowed as long as patients were on a stable dosing regimen for at least 14 days prior to study entry that was maintained throughout the study. Patients were required to withhold oral corticosteroids for at least 24 hours prior to pulmonary function testing. Leukotriene modifiers and methylxanthines were not allowed for at least 7-days prior to study entry. Levalbuterol MDI (Xopenex® Sepracor Inc., Marlborough, Mass.) was supplied and used as-needed for rescue medications for acute bronchospasm and acute treatment of COPD symptoms throughout the trial. Patients were instructed to withhold the use of rescue medication for ≧6 hours prior to each clinic visit.
At the screening visit, baseline values were obtained for COPD symptoms, Modified Medical Research Council (MMRC) Dyspnea Scale, heart rate, vital signs, and pulmonary function tests. Medical event calendars and medication logs that were to be completed daily, and rescue medication were also dispensed. The medication logs were used to assess compliance by monitoring the number of UDV/DPI doses taken.
as §2

Setting [4] is: ITT, transition focal score range −9 to 9.
[5] abbreviates: baseline percent predicted FEV1 <50%.
The mark [6] stands for this setting: baseline percent predicted FEV1 <50%, combined versus the mono-therapy.
Setting [7] is: baseline percent predicted FEV1 ≧50%.
Setting [8] is: baseline percent predicted FEV1 ≧50%, combined versus the mono-therapy.
Where [9] appears, read: <50% percent predicted FEV1, changes in levalbuterol MDI use at week 2.
The mark [10] stands for this setting: ITT, week 2, change from baseline, levalbuterol rescue.
The mark [11] stands for this setting: ≧50% percent predicted FEV1, changes in levalbuterol MDI use at week 2.

With `C[N+]1(C)[C@@H]2C[C@@H](OC(=O)C(O)(c3cccs3)c3cccs3)C[C@H]1[C@@H]1O[C@@H]12` [Tiotropium], the “Patients with change ≧1 unit (TDI), n (%)” value in data set [1] (ITT) was 44 (57.1) n (%). For the same compound, the “Difference between combined therapy and mono-therapies in TDI, LS mean” value in data set [1] (ITT, combined therapy versus the mono-therapy) worked out at 1.3 L. For the same compound, the “TDI, mean (SD)” value in data set [1] (setting [4]) is on record as 1.8 (2.8). In data set [1] (setting [5]), the “Patients with change of ≧1 unit (TDI), n (%)” value is listed as 25 (52.1) n (%) and the “TDI, mean (SD)” value is 1.6 (3.0). Further, the “Difference between combined therapy and mono-therapies in TDI, LS mean” value in data set [1] (setting [6]) is 2.0. In data set [1] (setting [7]), the “TDI, mean (SD)” value was 2.3 (2.5) and the “Patients with change of ≧1 unit (TDI), %” value was 19 (67.9) %. Besides, the “Difference between combined therapy and mono-therapies in TDI, LS mean” value in data set [1] (setting [8]) is reported as 0.3. The “improvement in TDI” value in data set [1] is 1.6 units. Besides, in data set [2], the “Any adverse event, n (%)” value is 22 (27.5) n (%); the COPD exacerbations is reported as 0 n (%); the “Discontinued due to adverse events, n (%)” value is on record as 1 (1.3) n (%); the “Overall cardiovascular adverse events, n (%)” value is given as 1 (1.3) n (%). Also, in data set [2], the “Serious adverse events, n (%)” value was 0 n (%). For the same compound, in data set [3] (setting [9]), the “Number of actuations per day, mean (SD)” value is given as −1.8 (3.3) actuations per day and the “Used levalbuterol, n (%)” value was 48 (94.1) n (%). For the same compound, the “Used levalbuterol, n (%)” value in data set [3] (ITT, week 2) is on record as 38 (47.5) n (%). For the same compound, in data set [3] (setting [10]), the “Number of actuations per day, mean (SD)” value is −1.8 (2.8) actuations per day and the “Number of days per week, mean (SD)” value is on record as −2.2 (2.7) days per week. Moreover, in data set [3] (setting [11]), the “Number of actuations per day, mean (SD)” value was −1.9 (1.8) actuations per day and the “Used levalbuterol, n (%)” value is given as 27 (96.4) n (%).

On to `COc1ccc(C[C@@H](C)NC[C@H](O)c2ccc(O)c(NC=O)c2)cc1` [Arformoterol], for which the “Patients with change ≧1 unit (TDI), n (%)” value in data set [1] (ITT) is given as 50 (66.7) n (%). Also, the “TDI, mean (SD)” value in data set [1] (setting [4]) is listed as 2.3 (2.4). Moreover, in data set [1] (setting [5]), the “Patients with change of ≧1 unit (TDI), n (%)” value is reported as 34 (72.3) n (%) and the “TDI, mean (SD)” value is on record as 2.3 (2.3). For the same compound, the “Difference between combined therapy and mono-therapies in TDI, LS mean” value in data set [1] (setting [6]) is 1.3. Also, in data set [1] (setting [7]), the “TDI, mean (SD)” value is on record as 2.3 (2.6) and the “Patients with change of ≧1 unit (TDI), %” value is listed as 17 (57.1) %. In data set [1] (setting [8]), the “Difference between combined therapy and mono-therapies in TDI, LS mean” value is listed as 0.2. In addition, the “improvement in TDI” value in data set [1] is 2.3 units. Besides, in data set [2], the “Any adverse event, n (%)” value was 19 (25.0) n (%); the COPD exacerbations is given as 3 (3.9) n (%); the “Discontinued due to adverse events, n (%)” value is recorded as 2 (2.6) n (%); the “Overall cardiovascular adverse events, n (%)” value is given as 2 (2.6) n (%). Moreover, in data set [2], the “Serious adverse events, n (%)” value is listed as 1 (1.3) n (%). Moreover, the “patients reporting a serious adverse event” value in data set [2] (small intestinal obstruction) was “one”. For the same compound, in data set [3] (setting [9]), the “Number of actuations per day, mean (SD)” value was −2.1 (2.3) actuations per day and the “Used levalbuterol, n (%)” value was 45 (95.7) n (%). Also, the “Used levalbuterol, n (%)” value in data set [3] (ITT, week 2) is recorded as 40 (52.6) n (%). In data set [3] (setting [10]), the “Number of actuations per day, mean (SD)” value was −1.8 (2.2) actuations per day and the “Number of days per week, mean (SD)” value was −2.1 (2.6) days per week. For the same compound, in data set [3] (setting [11]), the “Number of actuations per day, mean (SD)” value was −1.3 (2.0) actuations per day and the “Used levalbuterol, n (%)” value is 26 (90)^ n (%).
